Results on three compounds are retold here after ChEMBL document CHEMBL3994652, “Cytotoxic clerodane diterpenoids from Croton crassifolius” (Bioorg Med Chem Lett, 2017).

Assay [1] concerns HepG2. Kind of assay: Cytotoxicity against human HepG2 cells assessed as growth inhibition at 100 uM after 48 hrs by MTT assay. The class given is functional, cell-based.
For assay [2], the system named is Hep 3B2. Put plainly: Induction of apoptosis in human Hep3B cells assessed as increase in cleaved caspase 3 level at 10 to 40 uM after 48 hrs by Western blot method. The assay is classed as functional, cell-based.
Assay [3] concerns Hep 3B2. Put plainly: Cytotoxicity against human Hep3B cells assessed as growth inhibition after 48 hrs by MTT assay. The class given is functional, cell-based.
Assay [4] relates to Hep 3B2. Put plainly: Induction of apoptosis in human Hep3B cells assessed as chromatin condensation at 20 uM after 48 hrs by acridine orange dye-based fluorescence microscopy. The assay is classed as functional, cell-based.
In assay [5] the test system is HepG2. Kind of assay: Cytotoxicity against human HepG2 cells assessed as growth inhibition after 48 hrs by MTT assay. The assay is classed as functional, cell-based. Particulars: HepG2, 48 h.
Assay [6] relates to Hep 3B2. Kind of assay: Cytotoxicity against human Hep3B cells assessed as growth inhibition at 100 uM after 48 hrs by MTT assay. The class given is functional, cell-based.
For assay [7], the system named is Hep 3B2. Kind of assay: Induction of apoptosis in human Hep3B cells assessed as formation of apoptotic bodies at 20 uM after 48 hrs by acridine orange dye-based fluorescence microscopy. The class given is functional, cell-based.
The test system of assay [8] is Hep 3B2. Put plainly: Induction of apoptosis in human Hep3B cells assessed as cell shrinkage at 20 uM after 48 hrs by acridine orange dye-based fluorescence microscopy. The assay is classed as functional.
Assay [9] deals with Hep 3B2. Kind of assay: Induction of apoptosis in human Hep3B cells assessed as cleaved PARP level after 48 hrs by Western blot method. The class given is functional, cell-based.
Assay [10] concerns Hep 3B2. Put plainly: Induction of apoptosis in human Hep3B cells assessed as reduction in pro-caspase 3 level at 10 to 40 uM after 48 hrs by Western blot method. The assay is classed as functional, cell-based.

Activity calls are given as the source filed them. No cut-off for these calls is given here.

Regarding `C[C@H]1C[C@@H]2OC(=O)[C@]3(C)CCCC(=C23)[C@]12C[C@H](c1ccoc1)OC2=O`, the “growth inhibition (GI)” value in the assay with HepG2 [1] and in the assay with Hep 3B2 [6] was “Active” in each case. The result in the assay on Hep 3B2 [2], in the assay on Hep 3B2 [4], with Hep 3B2 [7], with Hep 3B2 [8] and in the assay with Hep 3B2 [10] was Active. Moreover, the IC50 worked out at 42 µM with Hep 3B2 [3] and 17.9 µM in the assay with HepG2 [5]. In addition, the Activity entry in the assay with Hep 3B2 [9] was “Dose-dependent effect”.

Take `O=c1[nH]cc(F)c(=O)[nH]1` [FLUOROURACIL]: in the assay on Hep 3B2 [3], the IC50 is 49.7 µM.

Consider `COC(=O)[C@@]1(C)CC(=O)C=C2C1=CC[C@@H](C)[C@]2(C)CC(=O)c1ccoc1`, for which the “growth inhibition (GI)” value with HepG2 [1] was “Active”. The IC50 in the assay on Hep 3B2 [3] was determined as 51.6 µM.
